We go through one compound from patent US20040038233A1, “Diagnosis kit for mycobacterium species indentification and drug-resistance detection and manufacturing method thereof” (priority 2000, published 2004).

Test [1] relates to Mycobacterium tuberculosis. The test is classed as cell-based.
Test [2] has as its system strains having mutations of 511 (Leu>Pro), 516 (Asp>Tyr), 516 (Asp>Val), and 522 (Ser>Leu). Conditions: strains with mutations 511 (Leu>Pro); cited from earlier work.

`CO[C@H]1/C=C/O[C@@]2(C)Oc3c(C)c(O)c4c(c3C2=O)C2=NC3(CCN(CC(C)C)CC3)NC2=C(NC(=O)/C(C)=C\C=C\[C@H](C)[C@H](O)[C@@H](C)[C@@H](O)[C@@H](C)[C@H](OC(C)=O)[C@@H]1C)C4=O` [rifabutin, Rifabutin]: in test [1], the drug-susceptibility test result is “resistance”. Further, in test [2], the resistance classification entry is “low-level resistance” and the “rifabutin MIC” value was ≤ 5 µg/mL.
